In US20260217692A1 (Ascentage Pharma (Suzhou) Co., Ltd., priority 2023, published 2026):
Where a name gives a salt, the structure may show the parent alone.

Experiments:
Format in all cases: physicochemical
[1] = Polymorph screening test, suspension method (crystal form by XRPD after stirring in solvent); conditions: for Crystal form (XRPD): free base screening, 3 days
Method: (or 50° C.) for 3 days in the dark and centrifuged to remove the supernatant; the resulting precipitate was dried under vacuum (25° C., −0.1 MPa); and the resulting solid was collected and subjected to the XRPD test. The results are as follows:
(or 50° C./80° C.) for 3 days in the dark and centrifuged to remove the supernatant; and the resulting precipitate was dried under vacuum (25° C., −0.1 MPa).
(or 50° C.) for 3 days in the dark and centrifuged to remove the supernatant; and the resulting precipitate was dried under vacuum (25° C., −0.1 MPa).

[2] = Stability of crystal forms under stability test conditions (appearance, XRPD, HPLC); conditions: for Total impurities: HPLC
Method: The samples were placed under the stability conditions shown in the following table, sampling was performed at the corresponding time points, and the samples were subjected to appearance and XRPD tests. […] The stability results obtained are recorded in the following table. […] The samples were placed under the stability test conditions shown in the following table, sampling was performed at different time points, and the samples were subjected to the XRPD test. […] The samples were placed in an open state under the stability test conditions of 40° C./75% RH and 90% RH; and the samples were placed in a closed state at 60° C. in a light box (the test samples in the dark were placed in the same manner as the illumination test samples, and the treatment was performed in the dark). Sampling was performed at different time points, and the samples were subjected to the XRPD test. […] The samples were placed under the stability conditions shown in the following table, sampling was performed at the corresponding time points, and the samples were subjected to appearance and XRPD tests. […] The stability results obtained are recorded in the following table.

[3] = Dynamic vapor sorption (DVS) hygroscopicity test; conditions: 25° C. and 80% RH
Description: In the present disclosure, the DVS test parameters are set as follows: [table]

[4] = 0 d, listed as Phosphate crystal form E

Cc1cc(Nc2ncc(Cl)c(Nc3ccccc3S(=O)(=O)C(C)C)n2)c(OC(C)C)cc1C1=CCN(C2CCOCC2)CC1 [listing 1 of 3 here]
Crystal form (XRPD) ([1]; suspension in 1,4-Dioxane, 25° C.): Crystal form G
Crystal form (XRPD) ([1]; suspension in 1,4-Dioxane, 50° C.): Crystal form D
Crystal form (XRPD) ([1]; suspension in 2-MeTHF, 25° C.): Crystal form D
Crystal form (XRPD) ([1]; suspension in 2-MeTHF, 50° C.): Crystal form D
Crystal form (XRPD) ([1]; suspension in ACN/water (1/1, v/v), 25° C.): Crystal form D
Crystal form (XRPD) ([1]; suspension in ACN/water (1/1, v/v), 50° C.): Crystal form D
Crystal form (XRPD) ([1]; suspension in Acetone, 25° C.): Crystal form E
Crystal form (XRPD) ([1]; suspension in Acetone, 50° C.): Crystal form E
Crystal form (XRPD) ([1]; suspension in Acetone/water (1:1, v/v), 25° C.): Crystal form D
Crystal form (XRPD) ([1]; suspension in Acetone/water (1:1, v/v), 50° C.): Crystal form D
Crystal form (XRPD) ([1]; suspension in Acetonitrile, 25° C.): Crystal form D
Crystal form (XRPD) ([1]; suspension in Acetonitrile, 50° C.): Crystal form D
Crystal form (XRPD) ([1]; suspension in Cyclohexane, 25° C.): Crystal form D
Crystal form (XRPD) ([1]; suspension in Cyclohexane, 50° C.): Crystal form D
Crystal form (XRPD) ([1]; suspension in Dichloromethane, 25° C.): No solid sample was obtained
Crystal form (XRPD) ([1]; suspension in Dichloromethane, 50° C.): No solid sample was obtained
Crystal form (XRPD) ([1]; suspension in Ethanol, 25° C.): Crystal form B
Crystal form (XRPD) ([1]; suspension in Ethanol, 50° C.): Crystal form D
Crystal form (XRPD) ([1]; suspension in Ethyl acetate, 25° C.): Crystal form D
Crystal form (XRPD) ([1]; suspension in Ethyl acetate, 50° C.): Crystal form D
Crystal form (XRPD) ([1]; suspension in Isopropanol, 25° C.): Crystal form C
Crystal form (XRPD) ([1]; suspension in Isopropanol, 50° C.): Crystal form D
Crystal form (XRPD) ([1]; suspension in Isopropyl acetate, 25° C.): Crystal form D
Crystal form (XRPD) ([1]; suspension in Isopropyl acetate, 50° C.): Crystal form D
Crystal form (XRPD) ([1]; suspension in MA, 25° C.): Crystal form D
Crystal form (XRPD) ([1]; suspension in MA, 50° C.): Crystal form D
Crystal form (XRPD) ([1]; suspension in MEK, 25° C.): Crystal form D
Crystal form (XRPD) ([1]; suspension in MEK, 50° C.): Crystal form D
Crystal form (XRPD) ([1]; suspension in MIBK, 25° C.): Crystal form D
Crystal form (XRPD) ([1]; suspension in MIBK, 50° C.): Crystal form D
Crystal form (XRPD) ([1]; suspension in MeOH/water (1:1, v/v), 25° C.): Crystal form D
Crystal form (XRPD) ([1]; suspension in MeOH/water (1:1, v/v), 50° C.): Crystal form D
Crystal form (XRPD) ([1]; suspension in Methanol, 25° C.): Crystal form A
Crystal form (XRPD) ([1]; suspension in Methanol, 50° C.): Crystal form I
Crystal form (XRPD) ([1]; suspension in Methyl tert-butyl ether, 25° C.): Crystal form D
Crystal form (XRPD) ([1]; suspension in Methyl tert-butyl ether, 50° C.): Crystal form C
Crystal form (XRPD) ([1]; suspension in Tetrahydrofuran, 25° C.): Crystal form F
Crystal form (XRPD) ([1]; suspension in Tetrahydrofuran, 50° C.): No solid sample was obtained
Crystal form (XRPD) ([1]; suspension in Toluene, 25° C.): Crystal form D
Crystal form (XRPD) ([1]; suspension in Toluene, 50° C.): No solid sample was obtained
Crystal form (XRPD) ([1]; suspension in Water, 25° C.): Crystal form H
Crystal form (XRPD) ([1]; suspension in Water, 50° C.): Crystal form J
Crystal form (XRPD) ([1]; suspension in n-Heptane, 25° C.): Crystal forms C + D
Crystal form (XRPD) ([1]; suspension in n-Heptane, 50° C.): Crystal forms C + D
Crystal form (XRPD) ([1]; suspension in n-Hexane, 25° C.): Crystal form D
Crystal form (XRPD) ([1]; suspension in n-Hexane, 50° C.): Crystal form D

Cc1cc(Nc2ncc(Cl)c(Nc3ccccc3S(=O)(=O)C(C)C)n2)c(OC(C)C)cc1C1=CCN(C2CCOCC2)CC1 [listing 2 of 3 here]
Total impurities [2, 4]: 1.24%
Crystal form (XRPD) [2, 4]: Significant change
Total impurities ([2]; 40° C./75% RH, 1 M, listed as Phosphate crystal form E): 1.69%
Total impurities ([2]; 40° C./75% RH, 10 d, listed as Phosphate crystal form E): 1.79%
Crystal form (XRPD) ([2]; 40° C./75% RH, 10 d and 1 M, listed as Phosphate crystal form E): Significant change
Total impurities ([2]; 60° C., 1 M, listed as Phosphate crystal form E): 2.74%
Total impurities ([2]; 60° C., 10 d, listed as Phosphate crystal form E): 3.26%
Crystal form (XRPD) ([2]; 60° C., 10 d and 1 M, listed as Phosphate crystal form E): Significant change
Total impurities ([2]; 90% RH, 1 M, listed as Phosphate crystal form E): 3.03%
Total impurities ([2]; 90% RH, 10 d, listed as Phosphate crystal form E): 2.13%
Crystal form (XRPD) ([2]; 90% RH, 10 d and 1 M, listed as Phosphate crystal form E): Significant change
Total impurities ([2]; Illumination, 5 d, listed as Phosphate crystal form E): 3.02%
Crystal form (XRPD) ([2]; Illumination, 5 d and 10 d, listed as Phosphate crystal form E): Significant change
Total impurities ([2]; Illumination, 10 d, listed as Phosphate crystal form E): 5.00%

Cc1cc(Nc2ncc(Cl)c(Nc3ccccc3S(=O)(=O)C(C)C)n2)c(OC(C)C)cc1C1=CCN(C2CCOCC2)CC1 [listing 3 of 3 here]
Total impurities ([2]; 0 d, listed as Tartrate crystal form C): 0.28%
Total impurities ([2]; 40° C./75% RH, 1 M, listed as Tartrate crystal form C): 0.38%
Total impurities ([2]; 40° C./75% RH, 10 d, listed as Tartrate crystal form C): 0.37%
Total impurities ([2]; 60° C., 1 M, listed as Tartrate crystal form C): 0.47%
Total impurities ([2]; 60° C., 10 d, listed as Tartrate crystal form C): 0.41%
Total impurities ([2]; 90% RH, 1 M, listed as Tartrate crystal form C): 0.59%
Total impurities ([2]; 90% RH, 10 d, listed as Tartrate crystal form C): 0.48%
Total impurities ([2]; Illumination, 5 d, listed as Tartrate crystal form C): 1.01%
Appearance ([2]; Illumination, 5 d and 10 d): Color deepening
Total impurities ([2]; Illumination, 10 d, listed as Tartrate crystal form C): 1.04%

Cc1cc(Nc2ncc(Cl)c(Nc3ccccc3S(=O)(=O)C(C)C)n2)c(OC(C)C)cc1C1=CCN(C2CCOCC2)CC1 [crystal form C]
hygroscopic weight gain (DVS curve) [3]: 0.31±0.005%

Cc1cc(Nc2ncc(Cl)c(Nc3ccccc3S(=O)(=O)C(C)C)n2)c(OC(C)C)cc1C1=CCN(C2CCOCC2)CC1 [one equivalent of citrate crystal form B]
Total impurities ([2]; 0 d): 0.18%
Total impurities ([2]; 40° C./75% RH, 1 M): 0.19%
Total impurities ([2]; 40° C./75% RH, 10 d): 0.19%
Total impurities ([2]; 60° C., 1 M): 0.22%
Total impurities ([2]; 60° C., 10 d): 0.19%
Total impurities ([2]; 90% RH, 1 M): 0.19%
Total impurities ([2]; 90% RH, 10 d): 0.18%
Total impurities ([2]; Illumination, 5 d): 0.48%
Appearance ([2]; Illumination, 5 d and 10 d): Color deepening
Total impurities ([2]; Illumination, 10 d): 0.55%
stability of crystal form in solvents, citrate polymorph screening test ([1]; in solvents): relatively good stability
crystal form when stirred in solvent ([1]; methanol, ethanol, acetonitrile, acetone, ethyl acetate, dichloromethane, tetrahydrofuran, n-heptane, dioxane, or mixed solvent of methanol, acetonitrile, or acetone with water, 40° C.): remained stable

Cc1cc(Nc2ncc(Cl)c(Nc3ccccc3S(=O)(=O)C(C)C)n2)c(OC(C)C)cc1C1=CCN(C2CCOCC2)CC1 [one equivalent of tartrate crystal form B]
stability of crystal form in solvent, suspension method ([1]; acetone, tetrahydrofuran, n-heptane, or dioxane): relatively good stability
crystal form when stirred in solvent ([1]; acetone, tetrahydrofuran, n-heptane, or dioxane at 40° C.): remained stable
